Results as given in the OligoGym collection.
Oligonucleotides are given in HELM: sugar(base)linkage, 5' to 3'; d 2'-deoxyribose, r ribose, m 2'-O-methylribose, p phosphate. ss, as = sense and antisense strand

Target: Mmp7 (rat)
Test: reporter assay of Huesken 2005
Conditions: siRNA
Note: test concentration or dose not given here.

First: RNA1{r(A)p.r(A)p.r(U)p.r(U)p.r(U)p.r(U)p.r(A)p.r(C)p.r(C)p.r(U)p.r(U)p.r(C)p.r(A)p.r(C)p.r(G)p.r(A)p.r(C)p.r(U)p.r(C)p.d(T)p.d(T)}|RNA2{r(G)p.r(A)p.r(G)p.r(U)p.r(C)p.r(G)p.r(U)p.r(G)p.r(A)p.r(A)p.r(G)p.r(G)p.r(U)p.r(A)p.r(A)p.r(A)p.r(A)p.r(U)p.r(U)p.d(T)p.d(C)}$$$RNA1{StrandType:ss}|RNA2{StrandType:as}$
Second: RNA1{r(A)p.r(A)p.r(G)p.r(G)p.r(A)p.r(U)p.r(G)p.r(A)p.r(G)p.r(U)p.r(A)p.r(C)p.r(U)p.r(G)p.r(G)p.r(A)p.r(C)p.r(G)p.r(G)p.d(T)p.d(T)}|RNA2{r(C)p.r(C)p.r(G)p.r(U)p.r(C)p.r(C)p.r(A)p.r(G)p.r(U)p.r(A)p.r(C)p.r(U)p.r(C)p.r(A)p.r(U)p.r(C)p.r(C)p.r(U)p.r(U)p.d(G)p.d(T)}$$$RNA1{StrandType:ss}|RNA2{StrandType:as}$
The normalised inhibition (eCFP-eYFP dual reporter) of the first is higher: 76.1% for the first, 75.8% for the second.

Going from “RNA1{r(G)p.r(G)p.r(U)p.r(C)p.r(U)p.r(G)p.r(G)p.r(G)p.r(U)p.r(C)p.r(A)p.r(C)p.r(U)p.r(C)p.r(U)p.r(U)p.r(C)p.r(U)p.r(G)p.d(T)p.d(T)}|RNA2{r(C)p.r(A)p.r(G)p.r(A)p.r(A)p.r(G)p.r(A)p.r(G)p.r(U)p.r(G)p.r(A)p.r(C)p.r(C)p.r(C)p.r(A)p.r(G)p.r(A)p.r(C)p.r(C)p.d(C)p.d(A)}$$$RNA1{StrandType:ss}|RNA2{StrandType:as}$” to “RNA1{r(A)p.r(G)p.r(G)p.r(C)p.r(C)p.r(U)p.r(C)p.r(G)p.r(G)p.r(C)p.r(G)p.r(G)p.r(A)p.r(G)p.r(A)p.r(U)p.r(G)p.r(C)p.r(U)p.d(T)p.d(T)}|RNA2{r(A)p.r(G)p.r(C)p.r(A)p.r(U)p.r(C)p.r(U)p.r(C)p.r(C)p.r(G)p.r(C)p.r(C)p.r(G)p.r(A)p.r(G)p.r(G)p.r(C)p.r(C)p.r(U)p.d(G)p.d(G)}$$$RNA1{StrandType:ss}|RNA2{StrandType:as}$”, the normalised inhibition (eCFP-eYFP dual reporter) falls from 73.8% to 68.5%.

Compared with “RNA1{r(A)p.r(G)p.r(U)p.r(U)p.r(C)p.r(U)p.r(U)p.r(C)p.r(G)p.r(G)p.r(U)p.r(U)p.r(U)p.r(G)p.r(C)p.r(C)p.r(G)p.r(G)p.r(A)p.d(T)p.d(T)}|RNA2{r(U)p.r(C)p.r(C)p.r(G)p.r(G)p.r(C)p.r(A)p.r(A)p.r(A)p.r(C)p.r(C)p.r(G)p.r(A)p.r(A)p.r(G)p.r(A)p.r(A)p.r(C)p.r(U)p.d(T)p.d(C)}$$$RNA1{StrandType:ss}|RNA2{StrandType:as}$”, “RNA1{r(U)p.r(U)p.r(C)p.r(G)p.r(C)p.r(A)p.r(A)p.r(G)p.r(G)p.r(G)p.r(G)p.r(A)p.r(G)p.r(A)p.r(U)p.r(C)p.r(A)p.r(C)p.r(G)p.d(T)p.d(T)}|RNA2{r(C)p.r(G)p.r(U)p.r(G)p.r(A)p.r(U)p.r(C)p.r(U)p.r(C)p.r(C)p.r(C)p.r(C)p.r(U)p.r(U)p.r(G)p.r(C)p.r(G)p.r(A)p.r(A)p.d(G)p.d(C)}$$$RNA1{StrandType:ss}|RNA2{StrandType:as}$” is lower in normalised inhibition (eCFP-eYFP dual reporter): 53.8% for the first, 26.8% for the second.

Going from “RNA1{r(G)p.r(A)p.r(A)p.r(U)p.r(U)p.r(A)p.r(U)p.r(C)p.r(U)p.r(U)p.r(A)p.r(G)p.r(G)p.r(A)p.r(A)p.r(A)p.r(U)p.r(U)p.r(U)p.d(T)p.d(T)}|RNA2{r(A)p.r(A)p.r(A)p.r(U)p.r(U)p.r(U)p.r(C)p.r(C)p.r(U)p.r(A)p.r(A)p.r(G)p.r(A)p.r(U)p.r(A)p.r(A)p.r(U)p.r(U)p.r(C)p.d(T)p.d(G)}$$$RNA1{StrandType:ss}|RNA2{StrandType:as}$” to “RNA1{r(A)p.r(C)p.r(C)p.r(G)p.r(G)p.r(G)p.r(G)p.r(C)p.r(C)p.r(A)p.r(G)p.r(G)p.r(C)p.r(C)p.r(U)p.r(C)p.r(G)p.r(G)p.r(C)p.d(T)p.d(T)}|RNA2{r(G)p.r(C)p.r(C)p.r(G)p.r(A)p.r(G)p.r(G)p.r(C)p.r(C)p.r(U)p.r(G)p.r(G)p.r(C)p.r(C)p.r(C)p.r(C)p.r(G)p.r(G)p.r(U)p.d(G)p.d(C)}$$$RNA1{StrandType:ss}|RNA2{StrandType:as}$”, the normalised inhibition (eCFP-eYFP dual reporter) falls from 116% to 11%.

Going from “RNA1{r(U)p.r(U)p.r(C)p.r(C)p.r(U)p.r(G)p.r(U)p.r(U)p.r(U)p.r(G)p.r(U)p.r(U)p.r(G)p.r(C)p.r(C)p.r(A)p.r(C)p.r(U)p.r(C)p.d(T)p.d(T)}|RNA2{r(G)p.r(A)p.r(G)p.r(U)p.r(G)p.r(G)p.r(C)p.r(A)p.r(A)p.r(C)p.r(A)p.r(A)p.r(A)p.r(C)p.r(A)p.r(G)p.r(G)p.r(A)p.r(A)p.d(G)p.d(T)}$$$RNA1{StrandType:ss}|RNA2{StrandType:as}$” to “RNA1{r(G)p.r(A)p.r(U)p.r(G)p.r(A)p.r(G)p.r(U)p.r(A)p.r(C)p.r(U)p.r(G)p.r(G)p.r(A)p.r(C)p.r(G)p.r(G)p.r(A)p.r(U)p.r(G)p.d(T)p.d(T)}|RNA2{r(C)p.r(A)p.r(U)p.r(C)p.r(C)p.r(G)p.r(U)p.r(C)p.r(C)p.r(A)p.r(G)p.r(U)p.r(A)p.r(C)p.r(U)p.r(C)p.r(A)p.r(U)p.r(C)p.d(C)p.d(T)}$$$RNA1{StrandType:ss}|RNA2{StrandType:as}$”, the normalised inhibition (eCFP-eYFP dual reporter) rises from 37.6% to 87.4%.

Going from “RNA1{r(G)p.r(G)p.r(A)p.r(G)p.r(U)p.r(A)p.r(U)p.r(G)p.r(C)p.r(A)p.r(A)p.r(A)p.r(U)p.r(C)p.r(C)p.r(C)p.r(A)p.r(C)p.r(U)p.d(T)p.d(T)}|RNA2{r(A)p.r(G)p.r(U)p.r(G)p.r(G)p.r(G)p.r(A)p.r(U)p.r(U)p.r(U)p.r(G)p.r(C)p.r(A)p.r(U)p.r(A)p.r(C)p.r(U)p.r(C)p.r(C)p.d(A)p.d(C)}$$$RNA1{StrandType:ss}|RNA2{StrandType:as}$” to “RNA1{r(G)p.r(U)p.r(G)p.r(U)p.r(G)p.r(G)p.r(A)p.r(G)p.r(U)p.r(G)p.r(C)p.r(C)p.r(A)p.r(G)p.r(A)p.r(U)p.r(G)p.r(U)p.r(U)p.d(T)p.d(T)}|RNA2{r(A)p.r(A)p.r(C)p.r(A)p.r(U)p.r(C)p.r(U)p.r(G)p.r(G)p.r(C)p.r(A)p.r(C)p.r(U)p.r(C)p.r(C)p.r(A)p.r(C)p.r(A)p.r(C)p.d(C)p.d(T)}$$$RNA1{StrandType:ss}|RNA2{StrandType:as}$”, the normalised inhibition (eCFP-eYFP dual reporter) falls from 96.7% to 93.9%.

First: RNA1{r(U)p.r(G)p.r(C)p.r(C)p.r(U)p.r(U)p.r(U)p.r(G)p.r(C)p.r(A)p.r(C)p.r(C)p.r(G)p.r(G)p.r(G)p.r(G)p.r(C)p.r(C)p.r(A)p.d(T)p.d(T)}|RNA2{r(U)p.r(G)p.r(G)p.r(C)p.r(C)p.r(C)p.r(C)p.r(G)p.r(G)p.r(U)p.r(G)p.r(C)p.r(A)p.r(A)p.r(A)p.r(G)p.r(G)p.r(C)p.r(A)p.d(T)p.d(G)}$$$RNA1{StrandType:ss}|RNA2{StrandType:as}$
Second: RNA1{r(A)p.r(G)p.r(U)p.r(G)p.r(C)p.r(A)p.r(G)p.r(U)p.r(G)p.r(G)p.r(A)p.r(C)p.r(A)p.r(A)p.r(A)p.r(C)p.r(U)p.r(G)p.r(A)p.d(T)p.d(T)}|RNA2{r(U)p.r(C)p.r(A)p.r(G)p.r(U)p.r(U)p.r(U)p.r(G)p.r(U)p.r(C)p.r(C)p.r(A)p.r(C)p.r(U)p.r(G)p.r(C)p.r(A)p.r(C)p.r(U)p.d(G)p.d(G)}$$$RNA1{StrandType:ss}|RNA2{StrandType:as}$
The normalised inhibition (eCFP-eYFP dual reporter) of the first is lower: 59.1% for the first, 110% for the second.

Going from “RNA1{r(U)p.r(A)p.r(A)p.r(U)p.r(G)p.r(C)p.r(C)p.r(A)p.r(A)p.r(A)p.r(C)p.r(A)p.r(G)p.r(U)p.r(C)p.r(C)p.r(U)p.r(A)p.r(A)p.d(T)p.d(T)}|RNA2{r(U)p.r(U)p.r(A)p.r(G)p.r(G)p.r(A)p.r(C)p.r(U)p.r(G)p.r(U)p.r(U)p.r(U)p.r(G)p.r(G)p.r(C)p.r(A)p.r(U)p.r(U)p.r(A)p.d(G)p.d(T)}$$$RNA1{StrandType:ss}|RNA2{StrandType:as}$” to “RNA1{r(U)p.r(G)p.r(C)p.r(A)p.r(G)p.r(A)p.r(A)p.r(G)p.r(C)p.r(C)p.r(C)p.r(A)p.r(G)p.r(G)p.r(U)p.r(G)p.r(U)p.r(G)p.r(G)p.d(T)p.d(T)}|RNA2{r(C)p.r(C)p.r(A)p.r(C)p.r(A)p.r(C)p.r(C)p.r(U)p.r(G)p.r(G)p.r(G)p.r(C)p.r(U)p.r(U)p.r(C)p.r(U)p.r(G)p.r(C)p.r(A)p.d(T)p.d(T)}$$$RNA1{StrandType:ss}|RNA2{StrandType:as}$”, the normalised inhibition (eCFP-eYFP dual reporter) falls from 105% to 61.3%.

First: RNA1{r(A)p.r(G)p.r(A)p.r(A)p.r(G)p.r(U)p.r(G)p.r(A)p.r(C)p.r(C)p.r(G)p.r(C)p.r(A)p.r(C)p.r(U)p.r(U)p.r(C)p.r(A)p.r(G)p.d(T)p.d(T)}|RNA2{r(C)p.r(U)p.r(G)p.r(A)p.r(A)p.r(G)p.r(U)p.r(G)p.r(C)p.r(G)p.r(G)p.r(U)p.r(C)p.r(A)p.r(C)p.r(U)p.r(U)p.r(C)p.r(U)p.d(C)p.d(C)}$$$RNA1{StrandType:ss}|RNA2{StrandType:as}$
Second: RNA1{r(C)p.r(A)p.r(C)p.r(U)p.r(C)p.r(U)p.r(A)p.r(G)p.r(G)p.r(C)p.r(C)p.r(A)p.r(U)p.r(G)p.r(C)p.r(C)p.r(U)p.r(U)p.r(U)p.d(T)p.d(T)}|RNA2{r(A)p.r(A)p.r(A)p.r(G)p.r(G)p.r(C)p.r(A)p.r(U)p.r(G)p.r(G)p.r(C)p.r(C)p.r(U)p.r(A)p.r(G)p.r(A)p.r(G)p.r(U)p.r(G)p.d(T)p.d(T)}$$$RNA1{StrandType:ss}|RNA2{StrandType:as}$
The normalised inhibition (eCFP-eYFP dual reporter) of the first is lower: 32.9% for the first, 101% for the second.

Going from “RNA1{r(G)p.r(C)p.r(A)p.r(G)p.r(A)p.r(A)p.r(U)p.r(U)p.r(A)p.r(U)p.r(C)p.r(U)p.r(U)p.r(A)p.r(G)p.r(G)p.r(A)p.r(A)p.r(A)p.d(T)p.d(T)}|RNA2{r(U)p.r(U)p.r(U)p.r(C)p.r(C)p.r(U)p.r(A)p.r(A)p.r(G)p.r(A)p.r(U)p.r(A)p.r(A)p.r(U)p.r(U)p.r(C)p.r(U)p.r(G)p.r(C)p.d(G)p.d(C)}$$$RNA1{StrandType:ss}|RNA2{StrandType:as}$” to “RNA1{r(G)p.r(A)p.r(A)p.r(G)p.r(U)p.r(G)p.r(A)p.r(C)p.r(C)p.r(G)p.r(C)p.r(A)p.r(C)p.r(U)p.r(U)p.r(C)p.r(A)p.r(G)p.r(U)p.d(T)p.d(T)}|RNA2{r(A)p.r(C)p.r(U)p.r(G)p.r(A)p.r(A)p.r(G)p.r(U)p.r(G)p.r(C)p.r(G)p.r(G)p.r(U)p.r(C)p.r(A)p.r(C)p.r(U)p.r(U)p.r(C)p.d(T)p.d(C)}$$$RNA1{StrandType:ss}|RNA2{StrandType:as}$”, the normalised inhibition (eCFP-eYFP dual reporter) falls from 132% to 40.5%.
